Calls of active or inactive are those of the source. The rule behind the calls is not given here.
Tests used:
Rattus norvegicus [1] = assay: Antiulcer activity in sc dosed albino rat pyloric ligation model assessed as inhibition of gastric secretion administered as single dose 1 to 24 hrs prior to ligation; assay type: functional, organism-based; conditions: Stomach
Rattus norvegicus [2] = assay: Antiulcer activity in po dosed albino rat pyloric ligation model assessed as inhibition of gastric secretion administered as single dose 1 to 24 hrs prior to ligation; assay type: functional, organism-based; conditions: Stomach
Rattus norvegicus [3] = assay: Antiulcer activity in albino rat pyloric ligation model assessed as inhibition of total acid output at 100 mg/kg, po administered as single dose 1 hr prior ligation relative to control; assay type: functional
Rattus norvegicus [4] = assay: Antiulcer activity in albino rat pyloric ligation model assessed as elevation of gastric pH at 100 mg/kg, po administered as single dose 1 hr prior ligation (Rvb =1.1 no_unit); assay type: functional, Stomach
Rattus norvegicus [5] = assay: Antiulcer activity in albino rat pyloric ligation model assessed as inhibition of gastric volume at 100 mg/kg, po administered as single dose 1 hr prior ligation relative to control; assay type: functional; conditions: Stomach
[6] = Toxicity in histamine-induced guinea pig assessed as change in rate of beating in right atrium at 10 ' -5 to 5 x 10' -5 M after 5 mins; assay type: tissue-based, Cavia porcellus, Cardiac atrium
Mus musculus = assay: Anticholinergic activity in mouse assessed as mydriasis at 100 mg/kg, po measured after 1 to 24 hrs post dose; assay type: ADME, organism-based; design: dose 100 mg/kg, route oral; conditions: in vivo
Rattus norvegicus [7] = assay: Antiulcer activity in albino rat pyloric ligation model assessed as elevation of gastric pH at 6.25 mg/kg, po administered as single dose during prior ligation (Rvb =1.1 no_unit); assay type: functional, Stomach
Rattus norvegicus [8] = organism: Rattus norvegicus; assay: animal or person; conditions: Stomach, po, read-out: INH
Rattus norvegicus [9] = organism: Rattus norvegicus; assay: animal or person; conditions: po, read-out: INH
Rattus norvegicus [10] = assay: Antiulcer activity in albino rat pyloric ligation model assessed as inhibition of gastric volume at 100 mg/kg, po administered as single dose 24 hrs prior ligation relative to control; assay type: functional; conditions: Stomach
Rattus norvegicus [11] = assay: Antiulcer activity in albino rat pyloric ligation model assessed as elevation of gastric pH at 100 mg/kg, po administered as single dose during prior ligation (Rvb =1.1 no_unit); assay type: functional, Stomach
Rattus norvegicus [12] = assay: Antiulcer activity in albino rat pyloric ligation model assessed as elevation of gastric pH at 25 mg/kg, po administered as single dose 1 hr prior ligation (Rvb =1.1 no_unit); assay type: functional, Stomach
Rattus norvegicus [13] = assay: Antiulcer activity in albino rat pyloric ligation model assessed as elevation of gastric pH at 50 mg/kg, po administered as single dose 1 hr prior ligation (Rvb =1.1 no_unit); assay type: functional, Stomach
Rattus norvegicus [14] = assay: Antiulcer activity in albino rat pyloric ligation model assessed as inhibition of gastric volume at 25 mg/kg, po administered as single dose 1 hr prior ligation relative to control; assay type: functional; conditions: Stomach
Rattus norvegicus [15] = assay: Antiulcer activity in albino rat pyloric ligation model assessed as inhibition of total acid output at 200 mg/kg, po administered as single dose 1 hr prior ligation relative to control; assay type: functional
Rattus norvegicus [16] = assay: Antiulcer activity in albino rat pyloric ligation model assessed as elevation of gastric pH at 200 mg/kg, po administered as single dose 1 hr prior ligation (Rvb =1.1 no_unit); assay type: functional, Stomach
Rattus norvegicus [17] = assay: Antiulcer activity in albino rat pyloric ligation model assessed as inhibition of gastric volume at 50 mg/kg, po administered as single dose 1 hr prior ligation relative to control; assay type: functional; conditions: Stomach
Rattus norvegicus [18] = assay: Antiulcer activity in albino rat pyloric ligation model assessed as inhibition of total acid output at 100 mg/kg, po administered as single dose 24 hrs prior ligation relative to control; assay type: functional
Rattus norvegicus [19] = assay: Antiulcer activity in albino rat pyloric ligation model assessed as elevation of gastric pH at 100 mg/kg, po administered as single dose 24 hrs prior ligation (Rvb =1.1 no_unit); assay type: functional, Stomach
Rattus norvegicus [20] = assay: Antiulcer activity in albino rat pyloric ligation model assessed as inhibition of total acid output at 50 mg/kg, po administered as single dose 1 hr prior ligation relative to control; assay type: functional
Canis familiaris [21] = assay: Antisecretory activity in beagle dog with chronic gastric fistula assessed as inhibition of histamine-induced gastric secretion at 50 mg/kg, po measured every 15 mins post histamine treatment; assay type: functional, organism-based; design: dose 50 mg/kg; conditions: Canis lupus familiaris, Stomach
Canis familiaris [22] = assay: Toxicity in beagle dog at 50 mg/kg, po; assay type: organism-based, Canis lupus familiaris; design: dose 50 mg/kg, route oral; conditions: in vivo
Rattus norvegicus [23] = assay: Antiulcer activity in albino rat pyloric ligation model assessed as inhibition of total acid output at 100 mg/kg, po administered as single dose during ligation relative to control; assay type: functional
Rattus norvegicus [24] = assay: Antiulcer activity in albino rat pyloric ligation model assessed as inhibition of gastric volume at 100 mg/kg, po administered as single dose during ligation relative to control; assay type: functional; conditions: Stomach
Rattus norvegicus [25] = assay: Antiulcer activity in albino rat pyloric ligation model assessed as inhibition of total acid output at 25 mg/kg, po administered as single dose 1 hr prior ligation relative to control; assay type: functional
Rattus norvegicus [26] = assay: Antiulcer activity in albino rat pyloric ligation model assessed as inhibition of gastric volume at 200 mg/kg, po administered as single dose 1 hr prior ligation relative to control; assay type: functional; conditions: Stomach
Homo sapiens [27] = organism: Homo sapiens; assay: Antagonist activity at histamine receptor (unknown origin) assessed as shift in histamine-induced response at 10 '-5 M relative to control
Homo sapiens [28] = organism: Homo sapiens; assay: Antagonist activity at histamine receptor (unknown origin) assessed as shift in histamine-induced response at 5 x 10 '-5 M relative to control
[29] = Drug excretion in rat urine administered as single dose 1 to 24 hrs prior to ligation; assay type: ADME; conditions: in vivo

Cc1cc2ccccc2n1C
inhibition (Rattus norvegicus [1]): inactive
inhibition (Rattus norvegicus [2]): inactive

CCc1c(C)c2ccccc2n1CC(N)=O
inhibition (Rattus norvegicus [1]): inactive
inhibition (Rattus norvegicus [2]): inactive

CN/C(=N\CCSCc1nc[nH]c1C)NC#N [CIMETIDINE]
inhibition in vivo at 100 mg/kg (Rattus norvegicus [3]): 37%
pH (Rattus norvegicus [4]): 2.1
inhibition in vivo at 100 mg/kg (Rattus norvegicus [5]): 14%

Cc1ccc(C)n1CC(N)=O
inhibition (Rattus norvegicus [1]): inactive
inhibition (Rattus norvegicus [2]): inactive

Cc1cn(CC(N)=O)c2ccccc12
inhibition (Rattus norvegicus [1]): inactive
inhibition (Rattus norvegicus [2]): inactive

Cc1cc2ccccc2n1CC(N)=O
inhibition (Rattus norvegicus [1]): inactive
inhibition (Rattus norvegicus [2]): inactive

c1ccc2[nH]ccc2c1
inhibition (Rattus norvegicus [1]): Active
inhibition (Rattus norvegicus [2]): Active

Cc1c(C)n(CCC(N)=O)c2ccccc12
inhibition (Rattus norvegicus [1]): Active
inhibition (Rattus norvegicus [2]): Active

Cc1c(CO)c2ccccc2n1CCC(N)=O
inhibition (Rattus norvegicus [1]): Active
inhibition (Rattus norvegicus [2]): inactive

Cc1c(CO)c2ccccc2n1CC(N)=O
inhibition (Rattus norvegicus [1]): Active
inhibition (Rattus norvegicus [2]): inactive

Cc1cn(CCC(N)=O)c2ccccc12
inhibition (Rattus norvegicus [1]): inactive
inhibition (Rattus norvegicus [2]): inactive

Cc1c(C)c(C)n(CC(N)=O)c1C
inhibition (Rattus norvegicus [1]): inactive
Activity [6]: Non-toxic
Activity (Mus musculus): Non-toxic
inhibition (Rattus norvegicus [2]): inactive

Cc1ccc(C)n1CCC(N)=O
inhibition (Rattus norvegicus [1]): inactive
inhibition (Rattus norvegicus [2]): inactive

Cc1c(C)c(C)n(CCC(N)=O)c1C
inhibition (Rattus norvegicus [1]): inactive
inhibition (Rattus norvegicus [2]): inactive

CCc1c(C)n(CC(N)=O)c2ccccc12
inhibition (Rattus norvegicus [1]): inactive
inhibition (Rattus norvegicus [2]): inactive

Cc1c(C)n(CCCC(N)=O)c2ccccc12
inhibition (Rattus norvegicus [1]): Active
inhibition (Rattus norvegicus [2]): Active

CN1[C@@H]2CC[C@H]1CC(OC(=O)[C@H](CO)c1ccccc1)C2 (stereo partly drawn) [ENDO-ATROPINE]
pH (Rattus norvegicus [7]): 1.5
inhibition in vivo at 6.25 mg/kg (Rattus norvegicus [8]): 43%
inhibition in vivo at 6.25 mg/kg (Rattus norvegicus [9]): 58%

Cc1c(C)n(CC(N)=O)c2ccccc12
inhibition (Rattus norvegicus [1]): Active
inhibition in vivo at 100 mg/kg (Rattus norvegicus [3]): 85%
inhibition in vivo at 100 mg/kg (Rattus norvegicus [10]): 44%
pH (Rattus norvegicus [11]): 1.5
pH (Rattus norvegicus [12]): 2.6
Activity [6]: Non-toxic
pH (Rattus norvegicus [13]): 3
inhibition in vivo at 25 mg/kg (Rattus norvegicus [14]): 26%
Activity (Mus musculus): Non-toxic
pH (Rattus norvegicus [4]): 6
inhibition in vivo at 200 mg/kg (Rattus norvegicus [15]): 88%
pH (Rattus norvegicus [16]): 6.7
inhibition in vivo at 50 mg/kg (Rattus norvegicus [17]): 39%
inhibition in vivo at 100 mg/kg (Rattus norvegicus [18]): 69%
pH (Rattus norvegicus [19]): 3.2
inhibition in vivo at 50 mg/kg (Rattus norvegicus [20]): 69%
Activity (Canis familiaris [21]): Active
inhibition in vivo at 100 mg/kg (Rattus norvegicus [5]): 27%
Activity (Canis familiaris [22]): Toxic
inhibition in vivo at 100 mg/kg (Rattus norvegicus [23]): 52%
inhibition in vivo at 100 mg/kg (Rattus norvegicus [24]): 32%
inhibition in vivo at 25 mg/kg (Rattus norvegicus [25]): 47%
inhibition in vivo at 200 mg/kg (Rattus norvegicus [26]): 56%
inhibition (Rattus norvegicus [2]): Active

NC(=O)Cn1ccc2ccccc21
inhibition (Rattus norvegicus [1]): inactive
inhibition (Rattus norvegicus [2]): inactive

CNC(=S)NCCSCc1[nH]cnc1C
fold change (FC) (Homo sapiens [27]): 11
fold change (FC) (Homo sapiens [28]): 38

Cc1c[nH]c2ccccc12
inhibition (Rattus norvegicus [1]): Active
inhibition (Rattus norvegicus [2]): Active

Cc1c(CO)n(CCC(N)=O)c2ccccc12
inhibition (Rattus norvegicus [1]): inactive
inhibition (Rattus norvegicus [2]): inactive

Cc1c(CO)c2ccccc2n1CCCC(N)=O
inhibition (Rattus norvegicus [1]): inactive
inhibition (Rattus norvegicus [2]): inactive

CCc1c(C)c2ccccc2n1CCC(N)=O
inhibition (Rattus norvegicus [1]): inactive
inhibition (Rattus norvegicus [2]): inactive

Cc1cc2ccccc2[nH]1
inhibition (Rattus norvegicus [1]): Active
inhibition (Rattus norvegicus [2]): Active

CCc1c(C)n(CCC(N)=O)c2ccccc12
inhibition (Rattus norvegicus [1]): inactive
inhibition (Rattus norvegicus [2]): inactive

Cc1[nH]c2ccccc2c1C
inhibition (Rattus norvegicus [1]): Active
Activity [6]: Non-toxic
Activity (Mus musculus): Non-toxic
Drug excretion [29]: metabolite_detected
inhibition (Rattus norvegicus [2]): Active

Cc1cc2ccccc2n1CCC(N)=O
inhibition (Rattus norvegicus [1]): inactive
inhibition (Rattus norvegicus [2]): inactive
